Measurements published in ChEMBL document CHEMBL1138190, “Synthesis and antibacterial activity of novel C12 vinyl ketolides” (J Med Chem, 2006).
Converted amounts (≈) assume the structure as drawn.

Columns and labels:
Format in all cases: functional
Haemophilus influenzae [1] = assay: Antibacterial activity against Haemophilus influenzae 2762
Haemophilus influenzae [2] = assay: Antibacterial activity against Haemophilus influenzae 49247
[3] = test system: Staphylococcus epidermidis; assay: Antibacterial activity against Staphylococcus epidermidis f50654
Staphylococcus aureus [4] = assay: Antibacterial activity against Staphylococcus aureus 29213
Streptococcus pneumoniae [5] = assay: Antibacterial activity against Streptococcus pneumoniae Mef S 3427
Streptococcus pyogenes = assay: Antibacterial activity against Streptococcus pyogenes 8668
Streptococcus pneumoniae [6] = assay: Antibacterial activity against Streptococcus pneumoniae 297-749
[7] = test system: Staphylococcus epidermidis; assay: Antibacterial activity against Staphylococcus epidermidis 14990
Enterococcus faecalis [8] = assay: Antibacterial activity against Enterococcus faecalis bc11148-2
Staphylococcus aureus [9] = assay: Antibacterial activity against Staphylococcus aureus 33591
Enterococcus faecalis [10] = assay: Antibacterial activity against Enterococcus faecalis 29212
Streptococcus pneumoniae [11] = assay: Antibacterial activity against Streptococcus pneumoniae 49619
Streptococcus pneumoniae [12] = assay: Antibacterial activity against Streptococcus pneumoniae Erm 6849
Streptococcus pneumoniae [13] = assay: Antibacterial activity against Streptococcus pneumoniae Mef 5654
Streptococcus pneumoniae [14] = assay: Antibacterial activity against Streptococcus pneumoniae 280-962

| MIC (Haemophilus influenzae [1]) [µg/mL] | MIC (Haemophilus influenzae [2]) [µg/mL] | MIC [3] [µg/mL] | MIC (Staphylococcus aureus [4]) [µg/mL] | MIC (Streptococcus pneumoniae [5]) [µg/mL] | MIC (Streptococcus pyogenes) [µg/mL] | MIC (Streptococcus pneumoniae [6]) [µg/mL] | MIC [7] [µg/mL] | MIC (Enterococcus faecalis [8]) [µg/mL] | MIC (Staphylococcus aureus [9]) [µg/mL] | MIC (Enterococcus faecalis [10]) [µg/mL] | MIC (Streptococcus pneumoniae [11]) [µg/mL] | MIC (Streptococcus pneumoniae [12]) [µg/mL] | MIC (Streptococcus pneumoniae [13]) [µg/mL] | MIC (Streptococcus pneumoniae [14]) [µg/mL] | SMILES |
| --- | --- | --- | --- | --- | --- | --- | --- | --- | --- | --- | --- | --- | --- | --- | --- |
| 3.13 (≈ 3.73 µM) | 3.13 (≈ 3.73 µM) | 0.2 (≈ 0.238 µM) | 0.2 (≈ 0.238 µM) | 0.2 (≈ 0.238 µM) | 0.1 (≈ 0.119 µM) | ≤ 0.05 | 0.2 (≈ 0.238 µM) | 3.13 (≈ 3.73 µM) | 12.5 (≈ 14.9 µM) | 0.1 (≈ 0.119 µM) | ≤ 0.05 | 3.13 (≈ 3.73 µM) | 0.78 (≈ 0.928 µM) | ≤ 0.05 | C=C[C@]12OC(=O)N(CCCCc3ccc(-c4cccnc4)s3)[C@@H]1[C@@H](C)C(=O)[C@H](C)C[C@@](C)(OC)[C@H](O[C@@H]1O[C@H](C)C[C@H](N(C)C)[C@H]1O)[C@@H](C)C(=O)[C@@H](C)C(=O)O[C@@H]2CC |
| 0.78 (≈ 0.977 µM) | 1.56 (≈ 1.95 µM) | 0.2 (≈ 0.251 µM) | 0.2 (≈ 0.251 µM) | 0.1 (≈ 0.125 µM) | ≤ 0.05 | ≤ 0.05 | 0.1 (≈ 0.125 µM) | 0.78 (≈ 0.977 µM) | > 50 | 0.1 (≈ 0.125 µM) | ≤ 0.05 | 12.5 (≈ 15.7 µM) | 0.78 (≈ 0.977 µM) | ≤ 0.05 | C=C[C@]12OC(=O)N(CCCCn3cnc4cccnc43)[C@@H]1[C@@H](C)C(=O)[C@H](C)C[C@@](C)(OC)[C@H](O[C@@H]1O[C@H](C)C[C@H](N(C)C)[C@H]1O)[C@@H](C)C(=O)[C@@H](C)C(=O)O[C@@H]2CC |
| 1.56 (≈ 1.85 µM) | 3.13 (≈ 3.72 µM) | 0.1 (≈ 0.119 µM) | 0.1 (≈ 0.119 µM) | 0.1 (≈ 0.119 µM) | ≤ 0.05 | ≤ 0.05 | 0.1 (≈ 0.119 µM) | 0.4 (≈ 0.475 µM) | > 50 | 0.1 (≈ 0.119 µM) | ≤ 0.05 | 0.78 (≈ 0.926 µM) | 0.4 (≈ 0.475 µM) | ≤ 0.05 | C=C[C@]12OC(=O)N(CCCCn3cnc(-c4ccc(F)nc4)c3)[C@@H]1[C@@H](C)C(=O)[C@H](C)C[C@@](C)(OC)[C@H](O[C@@H]1O[C@H](C)C[C@H](N(C)C)[C@H]1O)[C@@H](C)C(=O)[C@@H](C)C(=O)O[C@@H]2CC |
| 0.78 (≈ 0.977 µM) | 1.56 (≈ 1.95 µM) | 0.4 (≈ 0.501 µM) | 0.2 (≈ 0.251 µM) | 0.2 (≈ 0.251 µM) | ≤ 0.05 | ≤ 0.05 | 0.1 (≈ 0.125 µM) | 0.78 (≈ 0.977 µM) | > 50 | 0.1 (≈ 0.125 µM) | ≤ 0.05 | 3.13 (≈ 3.92 µM) | 1.56 (≈ 1.95 µM) | ≤ 0.05 | C=C[C@]12OC(=O)N(CCCCn3cnc4ncccc43)[C@@H]1[C@@H](C)C(=O)[C@H](C)C[C@@](C)(OC)[C@H](O[C@@H]1O[C@H](C)C[C@H](N(C)C)[C@H]1O)[C@@H](C)C(=O)[C@@H](C)C(=O)O[C@@H]2CC |
| 0.78 (≈ 0.914 µM) | 3.13 (≈ 3.67 µM) | 0.1 (≈ 0.117 µM) | 0.1 (≈ 0.117 µM) | 0.2 (≈ 0.234 µM) | ≤ 0.05 | ≤ 0.05 | 0.2 (≈ 0.234 µM) | 0.78 (≈ 0.914 µM) | > 50 | 0.1 (≈ 0.117 µM) | ≤ 0.05 | 0.4 (≈ 0.469 µM) | 1.56 (≈ 1.83 µM) | ≤ 0.05 | C=C[C@]12OC(=O)N(CCCCn3cnc(-c4ccc(NC)nc4)c3)[C@@H]1[C@@H](C)C(=O)[C@H](C)C[C@@](C)(OC)[C@H](O[C@@H]1O[C@H](C)C[C@H](N(C)C)[C@H]1O)[C@@H](C)C(=O)[C@@H](C)C(=O)O[C@@H]2CC |
| 1.56 (≈ 1.85 µM) | 3.13 (≈ 3.72 µM) | 0.1 (≈ 0.119 µM) | 0.1 (≈ 0.119 µM) | ≤ 0.05 | ≤ 0.05 | ≤ 0.05 | 0.1 (≈ 0.119 µM) | 1.56 (≈ 1.85 µM) | > 50 | ≤ 0.05 | ≤ 0.05 | 1.56 (≈ 1.85 µM) | 0.4 (≈ 0.476 µM) | ≤ 0.05 | C=C[C@]12OC(=O)N(CCCCc3cnc(-c4cccnc4)s3)[C@@H]1[C@@H](C)C(=O)[C@H](C)C[C@@](C)(OC)[C@H](O[C@@H]1O[C@H](C)C[C@H](N(C)C)[C@H]1O)[C@@H](C)C(=O)[C@@H](C)C(=O)O[C@@H]2CC |
| 0.78 (≈ 0.959 µM) | 3.13 (≈ 3.85 µM) | 0.1 (≈ 0.123 µM) | 0.1 (≈ 0.123 µM) | 0.2 (≈ 0.246 µM) | ≤ 0.05 | ≤ 0.05 | 0.1 (≈ 0.123 µM) | 0.4 (≈ 0.492 µM) | > 50 | ≤ 0.05 | ≤ 0.05 | > 50 | 0.78 (≈ 0.959 µM) | ≤ 0.05 | C=C[C@]12OC(=O)N(CCCCn3cnc4c(C)ncnc43)[C@@H]1[C@@H](C)C(=O)[C@H](C)C[C@@](C)(OC)[C@H](O[C@@H]1O[C@H](C)C[C@H](N(C)C)[C@H]1O)[C@@H](C)C(=O)[C@@H](C)C(=O)O[C@@H]2CC |
| 3.13 (≈ 3.86 µM) | 3.13 (≈ 3.86 µM) | 0.78 (≈ 0.962 µM) | 0.1 (≈ 0.123 µM) | 0.1 (≈ 0.123 µM) | ≤ 0.05 | ≤ 0.05 | 0.1 (≈ 0.123 µM) | 0.625 (≈ 0.771 µM) | > 50 | ≤ 0.05 | ≤ 0.05 | 3.13 (≈ 3.86 µM) | 0.78 (≈ 0.962 µM) | ≤ 0.05 | C=C[C@]12OC(=O)N(CCCCn3ccc4c(N)cccc43)[C@@H]1[C@@H](C)C(=O)[C@H](C)C[C@@](C)(OC)[C@H](O[C@@H]1O[C@H](C)C[C@H](N(C)C)[C@H]1O)[C@@H](C)C(=O)[C@@H](C)C(=O)O[C@@H]2CC |
